# In patent publication US10059956B2, “Glycosyltransferase gene and use thereof” (SUNTORY HOLDINGS LIMITED, priority 2012, dated 2018):
# Tested on: NmGT8 protein
# Assay: Enzyme reaction of flavone substrates with His-tag purified NmGT8 protein solution and UDP-glucose (HPLC)
# Type: biochemical, Nemophila menziesii
# Settings: NmGT8 protein solution, UDP-glucose, 1 mM substrate stock, 20 minutes at 30° C., HPLC 330 nm
# Experimental: The transformed E. coli were cultured at 37° C. to an OD600 value of 0.5 in 8 ml of the prepared culture liquid (approx. 4 hours). This E. coli culture liquid was then used as a pre-culture liquid and added to 200 ml of culture liquid followed by final culturing overnight at 25° C.
# Following final culturing overnight, the E. coli culture liquid was centrifuged (1000×g, 4° C., 10 minutes), the collected cells were suspended in 20 ml of extract (composition: buffer (KCl: 300 mM, KH2PO4: 50 mM, imidazole: 5 mm) (pH 8.0), amidinophenylmethanesulfonyl fluoride hydrochloride (APMSF): 10 μM), and after crushing the E. coli by ultrasonic treatment, the crushed cells were centrifuged (1400×g, 4° C., 20 minutes) followed by recovery of the supernatant. This supernatant was passed through a 0.45 μm filter and purified by His-Tag protein purification using Profinia (Bio-Rad Laboratories, Inc.) in accordance with the protocol recommended by the manufacturer. The resulting purified protein solution was centrifuged (7500×g, 4° C., 15 minutes) using centrifugal filters (Ultracel-10K, Amicon Corp.) and the concentrated protein solution was designated as “NmGT8 Protein Solution”. The Avanti HP-26XP (rotor: JA-2) (Beckman Coulter Inc.) was used for centrifugation.
# A reaction liquid prepared by mixing 10 μl of protein solution, 2 μl of 50 mM UDP-glucose, 10 μl of 1 M Tris HCl (pH 7.5) and 5 μl of 1 mM apigenin on ice and bringing to a volume of 100 μl with water was held for 20 minutes at 30° C. Subsequently, 100 μl of stop buffer (90% aqueous acetonitrile solution containing 0.1% TFA) were added to stop the reaction followed by analyzing the reaction liquid by high-performance liquid chromatography (Prominence (Shimadzu Corp.)). The Shimadzu PDA SPD-M10AVP was used for the detector and flavone was detected at 330 nm. The Shim-Pack ODS 150 mm×4.6 mm column (Shimadzu Corp.) was used for the column. A Solution A (0.1% aqueous TFA solution) and a Solution B (90% aqueous methanol solution containing 0.1% TFA) were used for elution. Elution was carried out using a linear concentration gradient from an 8:2 mixture of the two solutions to a 3:7 mixture of the two solutions over the course of 10 minutes followed by a 3:7 mixture for 6 minutes. The flow rate was 0.6 ml/min.
row,Compound,glycosylation product biosynthesized from the substrate
1,O=c1cc(-c2ccc(O)cc2)oc2cc(O[C@@H]3O[C@H](CO)[C@@H](O)[C@H](O)[C@H]3O)cc(O)c12 [apigenin 7-glucoside],"apigenin 4′,7-diglucoside was not biosynthesized"
2,"O=c1cc(-c2ccc(O)cc2)oc2cc(O)cc(O)c12 [apigenin, 4′,5,7-trihydroxyflavone]",flavone demonstrating the same retention time and absorption maximum as purified apigenin 4′-glucoside was biosynthesized
3,O=c1cc(-c2ccc(O)c(O)c2)oc2cc(O[C@@H]3O[C@H](CO)[C@@H](O)[C@H](O)[C@H]3O)cc(O)c12 [luteolin 7-glucoside],"luteolin 4′,7-diglucoside was also not biosynthesized"
4,"O=c1cc(-c2ccc(O)c(O)c2)oc2cc(O)cc(O)c12 [luteolin, 3′,4′,5,7-tetrahydroxyflavone]",Luteolin 4′-glucoside was biosynthesized
